# Experimental data from US20250170090A1, “METHOD FOR PREVENTING OR TREATING DISEASE OR DISORDER ASSOCIATED WITH ANTINEOPLASTIC AGENT” (ONQUALITY PHARMACEUTICALS CHINA LTD., priority 2022, published 2025).
# Assays:
# [1] = system: human intestinal epithelial cells (FHs 74 Int); assay: CCK-8 cell viability: alleviation of proliferative toxicity of anti-tumor agents on FHs 74 Int (Table 8-4); type: cell-based; conditions: NO-NSAID 100 μM
# Outline: (§1)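 Cells seeded at 5,000-10,000 per well and exposed to anti-tumor agent (DMSO solvent) alone or with NO-NSAID (ethanol or water solvent), with solvent controls used for correction. Viability read by CCK-8 after 24-48 hours; proliferative toxicity and its alleviation compared by t test.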
# [2] = system: hand-foot syndrome caused by macromolecular anti-tumor agents; assay: Prevention of hand-foot syndrome caused by macromolecular protein inhibitors in rats (Table 3); type: in vivo
# [3] = system: gastric epithelial cells (GES-1); assay: CCK-8 cell viability: alleviation of proliferative toxicity of anti-tumor agents on GES-1 (Table 8-3); type: cell-based, human; conditions: NO-NSAID 100 μM
# Outline: as §1
# [4] = system: chemotherapy-induced hand-foot syndrome; assay: Prevention of chemotherapy-induced hand-foot syndrome in rat models (Table 5); type: in vivo, SD rats
# Outline: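 SD rats (~200 g, 10 per group) received chemotherapy drugs by gavage at 1 mL/100 g, then NO-NSAID ointment or blank ointment was applied to the paws. Hand-foot syndrome incidence was recorded, and control rate was taken as blank-group incidence minus treated-group incidence.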
# [5] = system: hand-foot syndrome caused by anti-tumor agents; assay: Treatment of established hand-foot syndrome caused by anti-tumor agents in rats (Table 4); type: in vivo
# Outline: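 Rats (about 200 g), 10 per group, given anti-tumor agent by gavage (Cremophor EL:ethanol 1:1, diluted about 3 times with PBS), treated for established hand-foot syndrome with NO-NSAID ointment. Control rate is the blank-group incidence minus the treatment-group incidence.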
# [6] = system: human oral keratinocytes (HOK); assay: CCK-8 cell viability: alleviation of proliferative toxicity of anti-tumor agents on HOK (Table 8-2); type: cell-based; conditions: NO-NSAID 100 μM
# Outline: as §1
# [7] = system: human immortalized keratinocytes (HaCaT); assay: CCK-8 cell viability: alleviation of proliferative toxicity of anti-tumor agents on HaCaT (Table 8-1); type: cell-based; conditions: NO-NSAID 100 μM, percentage increase in viable cells vs anti-tumor agent alone
# Outline: as §1
compound,measurement,setting,value
CC(=O)Oc1ccccc1C(=O)Oc1cccc(CO[N+](=O)[O-])c1 [Compound A2],Response rate % (average),[1]; Afatinib (10 μM),22%
same,Response rate % (average),[1]; Cabozantinib (5 μM),26%
same,Response rate % (average),[1]; Dabrafenib (10 μM),13%
same,Response rate % (average),[1]; Everolimus (5 μM),27%
same,Response rate % (average),[1]; Infigratinib (15 μM),20%
same,Response rate % (average),[1]; Lapatinib (5 μM),20%
same,Response rate % (average),[1]; Lenvatinib (10 μM),26%
same,Response rate % (average),[1]; Olmutinib (10 μM),25%
same,Response rate % (average),[1]; Regorafenib (5 μM),21%
same,Response rate % (average),[1]; Selumetinib (5 μM),27%
same,Response rate % (average),[1]; Sorafenib (5 μM),26%
same,Response rate % (average),[1]; Sunitinib (5 μM),36%
same,Control rate,"[2]; Bevacizumab, 5-FU combination, tail vein injection once a week, ointment 1% wt, Days 18",33.33%
same,Control rate,"[2]; Bevacizumab, 5-FU combination, tail vein injection once a week, ointment 5% wt, Days 18",50.00%
same,Control rate,"[2]; Ramucirumab combined with paclitaxel, intraperitoneal injection once a week, ointment 1% wt, Days 23",33.33%
same,Control rate,"[2]; Ramucirumab combined with paclitaxel, intraperitoneal injection once a week, ointment 5% wt, Days 23",66.67%
same,Response rate % (average),[3]; Afatinib (10 μM),3%
same,Response rate % (average),[3]; Cabozantinib (5 μM),27%
same,Response rate % (average),[3]; Dabrafenib (10 μM),25%
same,Response rate % (average),[3]; Everolimus (5 μM),31%
same,Response rate % (average),[3]; Infigratinib (15 μM),39%
same,Response rate % (average),[3]; Lapatinib (5 μM),16%
same,Response rate % (average),[3]; Lenvatinib (10 μM),23%
same,Response rate % (average),[3]; Olmutinib (10 μM),30%
same,Response rate % (average),[3]; Regorafenib (5 μM),18%
same,Response rate % (average),[3]; Selumetinib (5 μM),17%
same,Response rate % (average),[3]; Sorafenib (5 μM),24%
same,Response rate % (average),[3]; Sunitinib (5 μM),18%
same,Control rate,"[4]; Acelarin 130 mg/kg twice a week, ointment 1% wt, Days 30",28.57%
same,Control rate,"[4]; Capecitabine 4000 mg/kg once a day, ointment 2% wt, Days 40",22.22%
same,Control rate,"[4]; Capecitabine 4000 mg/kg once a day, ointment 5% wt, Days 40",28.57%
same,Control rate,"[4]; Capecitabine 4000 mg/kg once a day, ointment 10% wt, Days 40",33.33%
same,Control rate,"[4]; Cytarabine 120 mg/kg twice a day, ointment 2% wt, Days 30",14.29%
same,Control rate,"[4]; Cytarabine 120 mg/kg twice a day, ointment 5% wt, Days 30",42.86%
same,Response rate,"[5]; Apatinib 105 mg/kg once every two days, ointment 3% wt, Days 7",33.33%
same,Response rate,"[5]; Cabozantinib 50 mg/kg once every two days, ointment 1% wt, Days 13",14.29%
same,Response rate,"[5]; Erdafitinib 45 mg/kg once every two days, ointment 3% wt, Days 13",28.57%
same,Response rate,"[5]; Fruquintinib 40 mg/kg once every two days, ointment 3% wt, Days 8",50.00%
same,Response rate,"[5]; Lenvatinib 65 mg/kg once a day, ointment 3% wt, Days 9",33.33%
same,Response rate,"[5]; Regorafenib 90 mg/kg once every two days, ointment 1% wt, Days 7",33.33%
same,Response rate,"[5]; Sorafenib 80 mg/kg once every two days, ointment 2.00% wt, Days 5",20.00%
same,Response rate,"[5]; Sunitinib 120 mg/kg once every two days, ointment 3% wt, Days 7",33.33%
same,Response rate % (average),[6]; Afatinib (10 μM),24%
same,Response rate % (average),[6]; Cabozantinib (5 μM),22%
same,Response rate % (average),[6]; Dabrafenib (10 μM),22%
same,Response rate % (average),[6]; Everolimus (5 μM),8%
same,Response rate % (average),[6]; Infigratinib (15 μM),21%
same,Response rate % (average),[6]; Lapatinib (5 μM),−8%
same,Response rate % (average),[6]; Lenvatinib (10 μM),19%
same,Response rate % (average),[6]; Olmutinib (10 μM),32%
same,Response rate % (average),[6]; Regorafenib (5 μM),3%
same,Response rate % (average),[6]; Selumetinib (5 μM),13%
same,Response rate % (average),[6]; Sorafenib (5 μM),31%
same,Response rate % (average),[6]; Sunitinib (5 μM),27%
same,Response rate % (average),[7]; Afatinib (10 μM),20%
same,Response rate % (average),[7]; Cabozantinib (5 μM),36%
same,Response rate % (average),[7]; Dabrafenib (10 μM),21%
same,Response rate % (average),[7]; Everolimus (5 μM),7%
same,Response rate % (average),[7]; Infigratinib (15 μM),16%
same,Response rate % (average),[7]; Lapatinib (5 μM),18%
same,Response rate % (average),[7]; Lenvatinib (10 μM),1%
same,Response rate % (average),[7]; Olmutinib (10 μM),34%
same,Response rate % (average),[7]; Regorafenib (5 μM),26%
same,Response rate % (average),[7]; Selumetinib (5 μM),18%
same,Response rate % (average),[7]; Sorafenib (5 μM),33%
same,Response rate % (average),[7]; Sunitinib (5 μM),31%
